Read-outs that look alike come from different tables or passages of the source.
Columns and labels:
[1] = for Comments: toxicity statement: toxicity = ≧20% body weight loss or 10% drug death
[2] = target: T1, murine CD38 (Mus musculus, UniProt P56528); test: Cross-reactivity of the antibody with murine CD38; assay type: binding
T1 sequence (P56528 1-304): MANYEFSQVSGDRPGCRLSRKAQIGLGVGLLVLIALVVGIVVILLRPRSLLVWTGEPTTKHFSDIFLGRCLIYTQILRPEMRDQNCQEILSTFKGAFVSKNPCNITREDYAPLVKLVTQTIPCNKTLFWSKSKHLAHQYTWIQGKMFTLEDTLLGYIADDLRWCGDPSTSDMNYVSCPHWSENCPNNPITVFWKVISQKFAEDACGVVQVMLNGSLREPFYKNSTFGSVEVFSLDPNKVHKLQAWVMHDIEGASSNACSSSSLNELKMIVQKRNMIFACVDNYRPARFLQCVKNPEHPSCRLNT

[3] = CPA alone, 286.1 mg/kg/inj (total 572.2), listed as CPA, 286.1 mg/kg

Molecule	deaths (deaths out of mice) [1, 3]	Comments: toxicity statement ([1]; CPA alone, 286.1 mg/kg/inj (total 572.2), 286.1 mg/kg)	Comments: toxicity statement [1, 3]	deaths, percent of mice ([1]; CPA alone, 286.1 mg/kg/injection) [%]	% BWC at nadir (day) ([1]; CPA alone, IV day 11, 15, 68.2 mg/kg/inj (total 136.4), nadir day 18)	% BWC at nadir (day) ([1]; CPA alone, IV day 11, 15, 110.0 mg/kg/inj (total 220.0), nadir day 17)	% BWC at nadir (day) ([1]; CPA alone, IV day 11, 15, 286.1 mg/kg/inj (total 572.2), nadir day 20)	Comments: toxicity statement (HNTD = highest nontoxic dose) ([1]; CPA alone, […] (total 354.8))	cross-reactivity with murine CD38 [2]	% BWC at nadir (day) ([1]; mouse, in vivo, iv, 40 mg/kg)
O=P1(N(CCCl)CCCl)NCCCO1 (stereo not shown) [cyclophosphamide]	⅗	Toxicity	Toxic	60	−3.8 (18) %	−5.2 (17) %	−21.2 (20) %	HNTD		
hu38SB19: humanized anti-CD38 monoclonal antibody 38SB19; VH SEQ ID NO: 66, VL chosen from SEQ ID NOS: 62 and 64									lack of cross-reactivity	+5.4 (19) %
